According to patent US4379788A, “2-Phenyl-pyrimidones” (Dr. Karl Thomae Gesellschaft mit beschrankter Haftung, priority 1980, dated 1983):

What was measured:
Type in all cases: in vivo
blood circulation = assay: Effect on blood circulation in anesthetized dogs (i.v.); parameters: Duration: unit not given here; conditions: for Effect on average arterial blood pressure (first figure of the pair): figure before the slash; for Decrease in contractility dp/dt max: left ventricle
Protocol: The blood circulation tests were carried out on dogs with a body weight of 18-29 kg under chloraloseurethane-nembutal anesthesia (54+270+10 mg/kg i.v.). After opening the thorax in the 4th left intercostal space the animals were ventilated with room air by means of a Harvard respirator. The arterial blood pressure was measured in the arteria carotis by a Statham pressure transducer; the heart rate was measured electronically from the sequence of the R-peaks of the electrocardiogram. The maximum rate of pressure increase ([…]) in the left ventricula was measured by means of a Konigsberg pressure received and a Grass differential amplifier. All parameters were recorded by means of a direct-writer. For anticoagulation the animals were injected i.v. with a solution of 10 mg/kg of sodium polyethylenesulfonate in 20% polydiol. The test compounds were administered intravenously to groups of 3 to 4 dogs.

[1] = Determination of acute toxicity in mice after intravenous administration; conditions: mouse, in vivo, iv, observation period 14 days
Protocol: (§1) The acute toxicity of the test compound was determined in mice (observationperiod: 14 days) after intravenous administration.

mice = assay: as above; conditions: 35 mg/kg i.v., observation period 14 days
Protocol: as §1

| SMILES | Decrease in heart rate (blood circulation; 1.0 mg/kg i.v.) [min⁻¹] | Duration (blood circulation; 1.0 mg/kg i.v.) | Effect on average arterial blood pressure (first figure of the pair) (blood circulation; 1.0 mg/kg i.v.) | Decrease in contractility dp/dt max (blood circulation; 1.0 mg/kg i.v.) | LD50 at 336 h [1] [mg/kg] | Acute toxicity: animals died (mice) | Decrease in heart rate (blood circulation; 0.5 mg/kg i.v.) [min⁻¹] | Duration (blood circulation; 0.5 mg/kg i.v.) | Effect on average arterial blood pressure (second figure of the pair) (blood circulation; 0.5 mg/kg i.v., figure after the slash) [mm Hg] | Effect on average arterial blood pressure (first figure of the pair) (blood circulation; 0.5 mg/kg i.v.) [mm Hg] | Decrease in contractility dp/dt max (blood circulation; 0.5 mg/kg i.v.) |
| --- | --- | --- | --- | --- | --- | --- | --- | --- | --- | --- | --- |
| COc1cc2nc(-c3ccc(OCC(O)CNCCOc4ccccc4C)cc3)n(C)c(=O)c2cc1OC (centres unmarked) [E, 2-{4-[2-Hydroxy-3-(2-(2-methyl-phenoxy)-ethylamino)-propoxy]-phenyl}-3-methyl-6,7-dimethoxy-3,4-dihydroquinazolin-4-one] | -11 | > 36 | -13 mm Hg | -14 | > 35 | 0 out of 5 | – | – | – | – | – |
| COc1ccc2nc(-c3ccc(OCC(O)CNC(C)C)cc3)n(C)c(=O)c2c1 (centres unmarked) [D, 2-[4-(2-Hydroxy-3-isopropylamino-propoxy)-phenyl]-3-methyl-6-methoxy-3,4-dihydro-quinazolin-4-one] | -30 | > 40 | -5 mm Hg | -27 | – | – | – | – | – | – | – |
| COc1ccc2nc(-c3ccc(OCC(O)CN(C)CCc4ccc(OC)c(OC)c4)cc3)n(C)c(=O)c2c1.Cl.Cl (centres unmarked) [B, 2-{4-[2-Hydroxy-3-(2-(3,4-dimethoxy-phenyl)-N-methylethylamino)-propoxy]-phenyl}-3-methyl-6-methoxy-3,4-dihydro-quinazolin-4-one dihydrochloride] | -28 | 45 | -16 mm Hg | -17 | > 35 | 0 out of 5 | – | – | – | – | – |
| COc1cccc2c(=O)n(C)c(-c3ccc(OCCCNCC(O)COc4cccc(C)c4)cc3)nc12 (centres unmarked) [F, 2-{4-[3-(2-Hydroxy-3-(3-methyl-phenoxy)-propylamino)-propoxy]-phenyl}-3-methyl-8-methoxy-3,4-dihydroquinazolin-4-one] | -23 | > 63 | -11 mm Hg | -23 | > 35 | 0 out of 5 | – | – | – | – | – |
| COc1ccc2nc(-c3ccc(OCC(O)CNC(C)(C)C)cc3)n(C)c(=O)c2c1 (centres unmarked) [Compound A, 2-[4-(2-Hydroxy-3-tert.butylamino-propoxy)-phenyl]-3-methyl-6-methoxy-3,4-dihydro-quinazolin-4-one] | – | – | – | – | > 35 | 0 out of 5 | -21 | > 55 | -8 | -20 | -33 |
| COc1ccc2nc(-c3ccc(OCC(O)CNCCc4ccccc4OC)cc3)n(C)c(=O)c2c1.Cl.Cl (centres unmarked) [C, 2-{4-[2-Hydroxy-3-(2-(2-methoxy-phenyl)-ethylamino)-propoxy]-phenyl}-3-methyl-6-methoxy-3,4-dihydroquinazolin-4-one dihydrochloride] | -22 | > 36 | +1 mm Hg | -14 | > 35 | 0 out of 5 | – | – | – | – | – |
